According to ChEMBL document CHEMBL4831551, “Novel Heteroaromatic Carboxamides as Plasma Kallikrein Inhibitors for Treating Diabetic Complications, Ocular Diseases, and Edema-Associated Diseases” (ACS Med Chem Lett, 2021):

Target: Plasma kallikrein (Homo sapiens, UniProt P03952)
Test: Inhibition of kallikrein (unknown origin) using H-Pro-Phe-Arg-AMC as substrate incubated for 1 hr by fluorescence based analysis

Sequence of Plasma kallikrein (P03952 20-390 limits assumed): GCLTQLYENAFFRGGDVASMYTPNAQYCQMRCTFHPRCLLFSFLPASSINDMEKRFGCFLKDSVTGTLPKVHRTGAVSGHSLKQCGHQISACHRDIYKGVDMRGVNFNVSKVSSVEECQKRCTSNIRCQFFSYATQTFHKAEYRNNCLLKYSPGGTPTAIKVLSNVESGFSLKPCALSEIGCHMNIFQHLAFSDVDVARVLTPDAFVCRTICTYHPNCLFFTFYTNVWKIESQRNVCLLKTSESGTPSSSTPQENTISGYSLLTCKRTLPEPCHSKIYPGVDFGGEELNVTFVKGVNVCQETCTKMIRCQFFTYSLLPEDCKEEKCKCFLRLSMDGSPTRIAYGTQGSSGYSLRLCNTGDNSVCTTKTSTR
Sequence of Plasma kallikrein (P03952 391-638 limits assumed): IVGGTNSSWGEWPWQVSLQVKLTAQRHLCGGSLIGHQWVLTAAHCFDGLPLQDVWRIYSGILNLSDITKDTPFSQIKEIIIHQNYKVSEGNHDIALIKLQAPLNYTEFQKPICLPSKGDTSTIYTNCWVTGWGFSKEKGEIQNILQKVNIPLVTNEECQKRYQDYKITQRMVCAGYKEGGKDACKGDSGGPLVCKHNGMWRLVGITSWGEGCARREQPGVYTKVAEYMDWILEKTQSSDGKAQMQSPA

IC50 [nM] | SMILES
0.8 | Cc1[nH]nc2c1CC[C@H]2NC(=O)c1cnn(Cc2ccc(N3CC4CC4C3)nc2C(F)F)c1 (stereo partly specified)
0.5 | Cc1[nH]nc2c1CC[C@H]2NC(=O)c1cn(Cc2ccc(N3CC4(CC4)C3)nc2C(F)F)cn1
0.6 | Cc1[nH]nc2c1CC[C@H]2NC(=O)c1cn(Cc2ccc(N3CC4C(C3)C4(F)F)nc2C(F)F)cn1 (stereo partly specified)
0.5 | Cc1[nH]nc2c1CC[C@H]2NC(=O)c1cn(Cc2ccc(N3CC4(CC4)C3)nc2C(F)F)nn1
0.7 | Cc1[nH]nc2c1CC[C@H]2NC(=O)c1cn(Cc2ccc(N3CC4CC4C3)nc2C(F)F)cn1 (stereo partly specified)
0.8 | Cc1[nH]nc2c1CC[C@H]2NC(=O)c1cnn(Cc2ccc(N3CC4C(C3)C4(F)F)nc2C(F)F)c1 (stereo partly specified)
